In ChEMBL document CHEMBL6120948, “Design, Synthesis, and Biological Evaluation of Lysine-Stapled Peptide Inhibitors of p53-MDM2/MDMX Interactions with Potent Antitumor Activity In Vivo” (J Med Chem, 2024):

What was measured:
[1] = Antiproliferative activity against human U-87 MG cells expressing wild-type p53 incubated for 72 hrs by MTT assay; type: functional, cell-based, U-87MG ATCC
[2] = Induction of alpha-helical conformation in phosphate buffer at pH 7 at 100 uM by CD analysis; type: physicochemical; conditions: pH 7, 100 µM
[3] = test system: MCF7; assay: Antiproliferative activity against human MCF7 cells expressing wild-type p53 incubated for 72 hrs by MTT assay; type: functional, cell-based; conditions: MCF7, 72 h
[4] = Drug distribution in nucleus of human HCT-116 cells at 40 uM incubated for 4 hrs by Hoechst 33342/DiD dye based confocal microscopy; type: ADME, subcellular; conditions: hct-116, 4 h
[5] = Drug distribution in cytoplasm of human HCT-116 cells at 40 uM incubated for 4 hrs by Hoechst 33342/DiD dye based confocal microscopy; type: ADME, subcellular; conditions: hct-116, 4 h

Compound | Activity [2] [%] | IC50 [3] [µM] | Drug uptake [4] | Drug uptake [5] | IC50 [1] [µM]
CC(=O)N[C@@H](CC(C)C)C(=O)N[C@H](C(=O)N[C@@H](Cc1ccccc1)C(=O)N[C@H]1CCCCNCc2ccc(cc2)CNCCCC[C@@H](C(=O)N[C@@H](CO)C(=O)N[C@@H](C)C(=O)N[C@@H](C)C(N)=O)NC(=O)[C@H](CC(C)C)NC(=O)[C@H](CCC(N)=O)NC(=O)[C@H](C)NC(=O)[C@H](Cc2c[nH]c3ccccc23)NC(=O)[C@H](Cc2ccc(O)cc2)NC(=O)[C@H](Cc2c[nH]cn2)NC1=O)[C@@H](C)O | 11 | > 160 |  |  | > 160
CC(=O)N[C@@H](CC(C)C)C(=O)N[C@H](C(=O)N[C@@H](Cc1ccccc1)C(=O)N[C@H]1CCCCNCc2ccccc2CNCCCC[C@@H](C(=O)N[C@@H](CO)C(=O)N[C@@H](C)C(=O)N[C@@H](C)C(N)=O)NC(=O)[C@H](CC(C)C)NC(=O)[C@H](CCC(N)=O)NC(=O)[C@H](C)NC(=O)[C@H](Cc2c[nH]c3ccccc23)NC(=O)[C@H](Cc2ccc(O)cc2)NC(=O)[C@H](Cc2c[nH]cn2)NC1=O)[C@@H](C)O | 11 | > 160 |  |  | > 160
CC(=O)N[C@@H](CC(C)C)C(=O)N[C@H](C(=O)N[C@@H](Cc1ccccc1)C(=O)N[C@H]1CCCCNCc2ccccc2CNCCCC[C@@H](C(=O)N[C@@H](CCC(N)=O)C(=O)N[C@@H](CC(C)C)C(=O)N[C@H](C(=O)N[C@@H](CO)C(=O)N[C@@H](C)C(=O)N[C@@H](C)C(N)=O)[C@@H](C)O)NC(=O)[C@H](Cc2c[nH]c3ccccc23)NC(=O)[C@H](Cc2ccc(O)cc2)NC(=O)[C@H](Cc2c[nH]cn2)NC1=O)[C@@H](C)O | 11 | 11.3 |  |  | > 160
CC(=O)N[C@@H](CC(C)C)C(=O)N[C@H](C(=O)N[C@@H](Cc1ccccc1)C(=O)N[C@@H](CCC(=O)O)C(=O)N[C@H]1CCCCNCc2ccccc2CNCCCC[C@@H](C(=O)N[C@@H](CC(C)C)C(=O)N[C@H](C(=O)N[C@@H](CO)C(=O)N[C@@H](C)C(=O)N[C@@H](C)C(N)=O)[C@@H](C)O)NC(=O)[C@H](C)NC(=O)[C@H](Cc2c[nH]c3ccccc23)NC(=O)[C@H](Cc2ccc(O)cc2)NC1=O)[C@@H](C)O | 11 | 145 |  |  | > 160
CC(=O)N[C@@H](CC(C)C)C(=O)N[C@H](C(=O)N[C@@H](Cc1ccccc1)C(=O)N[C@H]1CCCCNCC#CCNCCCC[C@@H](C(=O)N[C@@H](CO)C(=O)N[C@@H](C)C(=O)N[C@@H](C)C(N)=O)NC(=O)[C@H](CC(C)C)NC(=O)[C@H](CCC(N)=O)NC(=O)[C@H](C)NC(=O)[C@H](Cc2c[nH]c3ccccc23)NC(=O)[C@H](Cc2ccc(O)cc2)NC(=O)[C@H](Cc2c[nH]cn2)NC1=O)[C@@H](C)O | 11 | > 160 |  |  | > 160
CC(=O)N[C@@H](CC(C)C)C(=O)N[C@H](C(=O)N[C@@H](Cc1ccccc1)C(=O)N[C@@H](CCC(=O)O)C(=O)N[C@H]1CCCCNCc2cccc(c2)CNCCCC[C@@H](C(=O)N[C@@H](CC(C)C)C(=O)N[C@H](C(=O)N[C@@H](CO)C(=O)N[C@@H](C)C(=O)N[C@@H](C)C(N)=O)[C@@H](C)O)NC(=O)[C@H](C)NC(=O)[C@H](Cc2c[nH]c3ccccc23)NC(=O)[C@H](Cc2ccc(O)cc2)NC1=O)[C@@H](C)O | 11 | > 160 |  |  | 138
CC(=O)N[C@@H](CC(C)C)C(=O)N[C@H](C(=O)N[C@@H](Cc1ccccc1)C(=O)N[C@H]1CCCCNCC#CCNCCCC[C@@H](C(=O)N[C@@H](CCC(N)=O)C(=O)N[C@@H](CC(C)C)C(=O)N[C@H](C(=O)N[C@@H](CO)C(=O)N[C@@H](C)C(=O)N[C@@H](C)C(N)=O)[C@@H](C)O)NC(=O)[C@H](Cc2c[nH]c3ccccc23)NC(=O)[C@H](Cc2ccc(O)cc2)NC(=O)[C@H](Cc2c[nH]cn2)NC1=O)[C@@H](C)O | 11 | > 160 |  |  | > 160
CSCC[C@H](NC(=O)[C@H](CC(C)C)NC(=O)[C@H](CCC(N)=O)NC(=O)[C@@H]1CCCCNCC#CCNCCCC[C@H](NC(=O)[C@H](Cc2ccccc2)NC(=O)[C@@H](NC(=O)[C@H](CC(C)C)NC(C)=O)[C@@H](C)O)C(=O)N[C@@H](CCC(=O)O)C(=O)N[C@@H](Cc2ccc(O)cc2)C(=O)N[C@@H](Cc2c[nH]c3ccccc23)C(=O)N1)C(=O)N[C@@H](CCC(N)=O)C(=O)N[C@@H](C)C(=O)N[C@@H](C)C(N)=O | 11 | 112 |  |  | > 160
CSCC[C@H](NC(=O)[C@H](CC(C)C)NC(=O)[C@H](CCC(N)=O)NC(=O)[C@@H]1CCCCNCc2ccc(cc2)CNCCCC[C@H](NC(=O)[C@H](Cc2ccccc2)NC(=O)[C@@H](NC(=O)[C@H](CC(C)C)NC(=O)CCNC(=O)c2ccc3c(c2)C(=O)OC32c3ccc(O)cc3Oc3cc(O)ccc32)[C@@H](C)O)C(=O)N[C@@H](CCC(=O)O)C(=O)N[C@@H](Cc2ccc(O)cc2)C(=O)N[C@@H](Cc2c[nH]c3ccccc23)C(=O)N1)C(=O)N[C@@H](CCC(N)=O)C(=O)N[C@@H](C)C(=O)N[C@@H](C)C(N)=O |  |  |  | Not_active | 
Ac-LTFEHYWAQLTS-NH2 | 11 |  |  |  | 

Now from value to compound, other results behind:

Activity [2] [%] | IC50 [3] [µM] | Drug uptake [4] | Drug uptake [5] | Compound | IC50 [1] [µM]
11 | 6.91 |  |  | CC(=O)N[C@@H](CC(C)C)C(=O)N[C@H](C(=O)N[C@@H](Cc1ccccc1)C(=O)N[C@@H](CCC(=O)O)C(=O)N[C@H]1CCCCNCc2ccc(cc2)CNCCCC[C@@H](C(=O)N[C@@H](CC(C)C)C(=O)N[C@H](C(=O)N[C@@H](CO)C(=O)N[C@@H](C)C(=O)N[C@@H](C)C(N)=O)[C@@H](C)O)NC(=O)[C@H](C)NC(=O)[C@H](Cc2c[nH]c3ccccc23)NC(=O)[C@H](Cc2ccc(O)cc2)NC1=O)[C@@H](C)O | > 160
11 | > 160 |  |  | CC(=O)N[C@@H](CC(C)C)C(=O)N[C@H](C(=O)N[C@@H](Cc1ccccc1)C(=O)N[C@H]1CCCCNCc2cccc(c2)CNCCCC[C@@H](C(=O)N[C@@H](CO)C(=O)N[C@@H](C)C(=O)N[C@@H](C)C(N)=O)NC(=O)[C@H](CC(C)C)NC(=O)[C@H](CCC(N)=O)NC(=O)[C@H](C)NC(=O)[C@H](Cc2c[nH]c3ccccc23)NC(=O)[C@H](Cc2ccc(O)cc2)NC(=O)[C@H](Cc2c[nH]cn2)NC1=O)[C@@H](C)O | 52.9
11 | > 160 |  |  | CSCC[C@H](NC(=O)[C@H](CC(C)C)NC(=O)[C@H](CCC(N)=O)NC(=O)[C@@H]1CCCCNCc2ccccc2CNCCCC[C@H](NC(=O)[C@H](Cc2ccccc2)NC(=O)[C@@H](NC(=O)[C@H](CC(C)C)NC(C)=O)[C@@H](C)O)C(=O)N[C@@H](CCC(=O)O)C(=O)N[C@@H](Cc2ccc(O)cc2)C(=O)N[C@@H](Cc2c[nH]c3ccccc23)C(=O)N1)C(=O)N[C@@H](CCC(N)=O)C(=O)N[C@@H](C)C(=O)N[C@@H](C)C(N)=O | 105
 |  | Active | Active | CC(C)C[C@H](NC(=O)CCNC(=O)c1ccc2c(c1)C(=O)OC21c2ccc(O)cc2Oc2cc(O)ccc21)C(=O)N[C@H](C(=O)N[C@@H](Cc1ccccc1)C(=O)N[C@H]1CCCCNCc2cccc(c2)CNCCCC[C@@H](C(=O)N[C@@H](CCC(N)=O)C(=O)N[C@@H](CC(C)C)C(=O)N[C@H](C(=O)N[C@@H](CO)C(=O)N[C@@H](C)C(=O)N[C@@H](C)C(N)=O)[C@@H](C)O)NC(=O)[C@H](Cc2c[nH]c3ccccc23)NC(=O)[C@H](Cc2ccc(O)cc2)NC(=O)[C@H](Cc2c[nH]cn2)NC1=O)[C@@H](C)O | 
11 | > 160 |  |  | CSCC[C@H](NC(=O)[C@H](CC(C)C)NC(=O)[C@H](CCC(N)=O)NC(=O)[C@@H]1CCCCNCc2cccc(c2)CNCCCC[C@H](NC(=O)[C@H](Cc2ccccc2)NC(=O)[C@@H](NC(=O)[C@H](CC(C)C)NC(C)=O)[C@@H](C)O)C(=O)N[C@@H](CCC(=O)O)C(=O)N[C@@H](Cc2ccc(O)cc2)C(=O)N[C@@H](Cc2c[nH]c3ccccc23)C(=O)N1)C(=O)N[C@@H](CCC(N)=O)C(=O)N[C@@H](C)C(=O)N[C@@H](C)C(N)=O | 21.9
11 | 19.9 |  |  | CC(=O)N[C@@H](CC(C)C)C(=O)N[C@H](C(=O)N[C@@H](Cc1ccccc1)C(=O)N[C@@H](CCC(=O)O)C(=O)N[C@H]1CCCCNCC#CCNCCCC[C@@H](C(=O)N[C@@H](CC(C)C)C(=O)N[C@H](C(=O)N[C@@H](CO)C(=O)N[C@@H](C)C(=O)N[C@@H](C)C(N)=O)[C@@H](C)O)NC(=O)[C@H](C)NC(=O)[C@H](Cc2c[nH]c3ccccc23)NC(=O)[C@H](Cc2ccc(O)cc2)NC1=O)[C@@H](C)O | > 160
11 | > 160 |  |  | CC(=O)N[C@@H](CC(C)C)C(=O)N[C@H](C(=O)N[C@@H](Cc1ccccc1)C(=O)N[C@H]1CCCCNCc2ccc(cc2)CNCCCC[C@@H](C(=O)N[C@@H](CCC(N)=O)C(=O)N[C@@H](CC(C)C)C(=O)N[C@H](C(=O)N[C@@H](CO)C(=O)N[C@@H](C)C(=O)N[C@@H](C)C(N)=O)[C@@H](C)O)NC(=O)[C@H](Cc2c[nH]c3ccccc23)NC(=O)[C@H](Cc2ccc(O)cc2)NC(=O)[C@H](Cc2c[nH]cn2)NC1=O)[C@@H](C)O | > 160
